Assay results reported in PubChem BioAssay AID449725 (University of Pittsburgh Molecular Library Screening Center, 2010).
Active and inactive are the calls of the source. No rule for the calls is given here.

Tested on: IMR-90 human lung fibroblast viability counter screen
Assay: cytotoxicity in human IMR-90 lung fibroblasts – cell-based, IC50, cytotoxicity control, dose response (AID 449725);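 also: 48 hour compound exposure before the viability read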

Row | SMILES | IC50
1 | CCc1ccc(C(=O)Nc2cc(Cl)ccc2C(=O)O)cc1 | > 25 µM (inactive)
2 | COc1cccc(-n2sc3ccccc3c2=O)c1 | 6.34 µM
3 | O=c1c2ccc(F)cc2sn1-c1ccccc1 | 7.17 µM
4 | O=c1c2c(Br)cccc2sn1-c1ccccc1 | > 25 µM (inactive)
5 | O=C(Cn1sc2ccccc2c1=O)Nc1ccccc1F | > 25 µM (inactive)
6 | COC(=O)c1cc(Cl)ccc1NC(=O)c1ccc(OC)cc1 | > 25 µM (inactive)
7 | CN(C)c1ccc(C(=O)Nc2cc(Cl)ccc2C(=O)O)cc1 | > 25 µM (inactive)
8 | O=C(Nc1cc(Cl)ccc1C(=O)O)c1ccc2c(c1)OCO2 | > 25 µM (inactive)
9 | CCC(C)(C)c1ccc(C(=O)Nc2cc(Cl)ccc2C(=O)O)cc1 | > 25 µM (inactive)
10 | O=C(Nc1cc(Cl)ccc1C(=O)O)c1ccccc1 | > 25 µM (inactive)
11 | O=C(Cn1sc2ccccc2c1=O)NC1CCCCC1 | 12.8 µM
12 | Cc1cc(=O)n(-c2ccccc2)s1 | 9.14 µM
13 | COc1ccc(C(=O)Nc2cc(Cl)c(C)cc2C(=O)O)cc1 | > 25 µM (inactive)
14 | CC(C)(C)c1ccc(C(=O)Nc2cc(Cl)ccc2C(=O)O)cc1 | > 25 µM (inactive)
15 | COc1ccc(C(=O)NC(CC(=O)O)c2ccc(Cl)cc2)cc1 (configuration not stated) | > 25 µM (inactive)
16 | COc1ccc(C(=O)Nc2cc(Cl)ccc2[N+](=O)[O-])cc1 | > 25 µM (inactive)
17 | N#Cc1ccc(Oc2ccc3c(c2)B(O)OC3)cc1 | > 25 µM (inactive)
18 | O=C(O)c1ccc(Cl)cc1NC(=O)N1CCOCC1 | > 25 µM (inactive)
19 | COC(=O)c1ccc(Cl)cc1NS(=O)(=O)c1ccc(OC)cc1 | 13.8 µM
20 | COc1ccc(C(=O)Nc2cccc(Cl)c2)cc1 | > 25 µM (inactive)
21 | CC(C)Cc1ccc(C(=O)Nc2cc(Cl)ccc2C(=O)O)cc1 | > 25 µM (inactive)
22 | COc1ccc(NC(=O)c2ccc(Cl)cc2C(=O)O)cc1 | > 25 µM (inactive)
23 | Cc1ccc(C(=O)Nc2cc(Cl)ccc2C(=O)O)cc1 | > 25 µM (inactive)
24 | O=C(Nc1cc(Cl)ccc1C(=O)O)c1ccc(Cl)cc1 | > 25 µM (inactive)

Row | SMILES | IC50
25 | CC(C)c1cccc(C(=O)Nc2cc(Cl)ccc2C(=O)O)c1 | > 25 µM (inactive)
26 | N#Cc1ccc2c(=O)n(-c3ccccc3)sc2c1 | > 25 µM (inactive)
27 | O=c1c2ccccc2sn1-c1ccc(Cl)cc1Cl | > 25 µM (inactive)
28 | O=c1s[nH]c2ccccc12 | > 25 µM (inactive)
29 | O=C(Nc1ccccc1)c1cc(F)ccc1S | > 25 µM (inactive)
30 | O=C(Nc1cc(Cl)ccc1C(=O)O)c1ccc(C2CCC2)cc1 | > 25 µM (inactive)
31 | O=c1c2ccccc2sn1-c1ccc(Cl)cc1 | > 25 µM (inactive)
32 | COc1ccc(Nc2cc(Cl)ccc2C(=O)O)cc1 | > 25 µM (inactive)
33 | O=C(Nc1cc(Cl)ccc1C(=O)O)c1ccc(C(F)(F)F)cc1 | > 25 µM (inactive)
34 | COc1ccc(C(=O)Nc2cc(Cl)ccc2O)cc1 | > 25 µM (inactive)
35 | O=C(Nc1cc(Cl)ccc1C(=O)O)c1ccc2c(c1)CCC2 | > 25 µM (inactive)
36 | O=C(Cn1sc2ccccc2c1=O)Nc1ccccc1Cl | > 25 µM (inactive)
37 | O=c1c2ccc([N+](=O)[O-])cc2sn1-c1ccccc1 | 20.7 µM
38 | O=C(Cn1sc2ccccc2c1=O)NCc1ccccc1 | 6.37 µM
39 | CC(=O)Nc1ccc2c(=O)n(-c3ccccc3)sc2c1 | > 25 µM (inactive)
40 | CN(C)S(=O)(=O)c1cccc(-n2sc3ccccc3c2=O)c1 | 12.8 µM
41 | COc1ccc(C(=O)N(C)c2cc(Cl)ccc2C(=O)O)cc1 | > 25 µM (inactive)
42 | O=c1ccsn1-c1ccccc1 | 5.79 µM
43 | CN(C)c1cccc(NC(=O)Cn2sc3ccccc3c2=O)c1 | > 25 µM (inactive)
44 | O=c1c2cc(F)c(F)cc2sn1-c1ccccc1 | > 25 µM (inactive)
45 | Cc1ccc(-n2sc3cc(F)ccc3c2=O)c(C)c1 | 6.4 µM
46 | O=C1CCN(C(=O)Nc2cc(Cl)ccc2C(=O)O)CC1 | > 25 µM (inactive)
47 | COc1ccc(C(=O)O)c(NC(=O)c2ccc(Cl)cc2)c1 | > 25 µM (inactive)
